In the test the target is T1, tyrosinase.
T1 construct: gene PPO1; tyrosinase of unstated source and supplier
The test is described as follows: L-tyrosine oxidation, absorbance at […] nm. The conditions noted are these: L-tyrosine substrate (0.1 mg/mL stock, 40 μL in 200 μL); PBS; 37 °C; 30 min. The class given is biochemical.

SMILES strings stand for the structures.

Broadly, the IC50 is the concentration at which inhibition is half-maximal. A low value points to inhibition by little substance. As for `CCCCCCCCCCCC(=O)OC[C@H]1O[C@H](Oc2ccc(O)cc2)[C@H](O)[C@@H](O)[C@@H]1O` [6′-O-lauroylarbutin], the IC50 was determined as 35 µM.

(Values after article PMC10991105 (Bioresources and Bioprocessing, 2024).)
